Source: patent US10093938B2, “Regulated switch for gene expression” (The Johns Hopkins University, priority 2014, dated 2018)

Key:
Format in all cases: cell-based, Saccharomyces cerevisiae
cam-TA [1] = assay: camphor-Off switch, GFP reporter (flow cytometry) in strain camG-TA
Protocol: To evaluate the performance of the system, we used GFP as a reporter.
However, another strain camG-TA that was constructed by introducing the […] expression cassette into the cam-TA strain produced significant amounts of GFP (FIG. 3C). From this, we conclude that cam-TA binds to camO and can activate the transcription of the reporter gene gfp.
Subsequently, the kinetics of the system was investigated using the camG-TA strain.
Cellular fluorescence from GFP was determined using a LSRII flow cytometer (Becton Dickinson, Franklin Lakes, N.J.) equipped with 488-nm argon ion laser (blue laser) and a 530/30-filter. All samples were suspended in sterile water, and 10,000 cells were analyzed per sample. Data acquisition and analysis were performed using FACSDiva software (Becton Dickinson) and FlowJo (Tree Star, Ashland, Oreg.).

cam-TA [2] = assay: camphor-Off system with ADE2 reporter, growth on SC-Ade
Description: FIG. 4. […] The cells were 10-fold diluted in across each row.
Another gene ADE2 (SEQ ID No. 10) was used to further evaluate the camphor-Off system. Specifically, we investigated availability of the system to complement the adenine-auxotrophy in a camphor-dependent manner. […] On the other hand, another strain camA-TA, which had cam-TA differently from camA-EmV, grew in […] SC-Ade media (FIG. 4B). […] The reversion frequency is approximately 10^−3. The behavior of each strain was thoroughly consistent with the schematic model of the camphor-system (FIG. 2).

cam-TA [3] = details: BY-TeCaOFF
Description: (§1) FIG. 6. Independent regulation of fluorescent reporters, RFP and GFP, with camphor-Off and Tet-Off systems. (A) pSIB859 can be used for integrating the camphor-Off system at a single transformation. Its derivative plasmid pSIB872 carries mCherry as a reporter. (B) Plasmid pSIB498 for the Tet-Off system. Its derivative pSIB527 carries gfp as a reporter. (C)-(F) Strain BY-TeCaOFF carries both pSIB872 and pSIB527. Cell images in SC medium (C), SC with camphor (D), SC with Dox (E), and SC with camphor and Dox. The top, middle, and bottom rows represent images of RFP, GFP, and DIC, respectively. Strain BY-TeCaOFF was grown for 1 day in SC medium with the indicated compounds.
(§2) The experiments in this section were performed to examine whether the camphor-Off system was orthogonal/compatible with the Tet-Off system in a yeast strain. Firstly, we developed new two acceptor vectors: one was used for the camphor-Off switch and the other was the Tet-Off switch. […]
(§3) Cells were viewed with an Axioskop-2 microscope (Carl Zeiss, Oberkochen, Germany) equipped with an X-cite120 light source (ExFo, Ontario, Canada) and a fluorescence filter set. A 100× objective and AxioVision software were used to capture fluorescence and differential interference contrast (DIC) images.

tTA (TetR-VP16 fusion) = target: T1, tTA (TetR-VP16 fusion) (Escherichia coli, UniProt P04483); assay: Orthogonality: Tet-Off GFP reporter in strain BY-TeCaOFF (microscopy); details: 25 μM, 1 day in SC medium
T1 construct: expressed in transfected cells; host or cells: Saccharomyces cerevisiae strain BY-TeCaOFF (integrated pSIB527, CMV promoter)
Description: as §1, §2, §3

Sequence of cam-TA (as listed by the source): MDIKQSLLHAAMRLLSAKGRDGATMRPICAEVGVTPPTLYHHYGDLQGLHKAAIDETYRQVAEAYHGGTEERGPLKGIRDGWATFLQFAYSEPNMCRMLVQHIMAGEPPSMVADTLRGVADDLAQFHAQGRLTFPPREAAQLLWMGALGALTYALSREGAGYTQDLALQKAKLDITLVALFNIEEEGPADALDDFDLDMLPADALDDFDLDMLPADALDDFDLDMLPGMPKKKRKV

With D-Camphor the “effective concentration for the camphor-Off system” value (cam-TA [1]; GFP reporter, camG-TA strain) was 25 µM, the “camphor concentration in the presence of which the GFP signal drastically decreased” value (cam-TA [1]; camG-TA strain in SC medium, camPr-gfp reporter) was ≥ 25 µM and the “period over which GFP intensity went to almost the same level as that of BY4741” value (cam-TA [1]; camG-TA strain in the presence of camphor) was 7 h. The “growth of strain camA-TA on SC-Ade media that contained camphor” value (cam-TA [2]; 100 μM camphor, 1 day at 30° C., camPr-ADE2) was “hardly proliferated at all”, the reversion frequency (cam-TA [2]; camA-TA on SC-Ade media containing camphor) was “approximately 10^−3” and the “corresponding reporter protein (mCherry, camphor-Off) on addition of the drug” value (cam-TA [3]; 25 μM, 1 day in SC medium) was “drastic decrease”. The “expression of mCherry reporter when both camphor and Dox were supplied” value (cam-TA [3]; camphor and Dox 25 μM each) was “repressed” and the “the other fluorescence (GFP, Tet-Off) on addition of camphor alone” value (tTA (TetR-VP16 fusion)) was “detected robustly”.
